Data taken from patent publication US11807625B2, “Capsid inhibitors for the prevention of HIV” (Gilead Sciences, Inc., priority 2019, dated 2023).
Like-named read-outs stand apart in the source and are kept apart here.

Experiment: PK of compound of Formula (Ia) after single subcutaneous dose of solution formulations in Wistar Han rats
Format: in vivo
Details: male, Wistar Han, rat, plasma, mean ± SD, SC 50 mg/kg; for AUC(0-t) / Cmax: sc, 50 mg/kg
Experimental: Formulations containing the compound of Formula (Ia), or a pharmaceutically acceptable salt thereof, were prepared as solutions and optionally administered subcutaneously or intramuscularly to rats, rabbits, and/or dogs.
(§1) A solution of about 400 mg/mL of the compound of Formula (Ia) having 19.14 w/w % water, 40.66 w/w % PEG 300, 35.20 w/w % of a sodium salt of a compound of Formula (Ia), and 5.00% ethanol was prepared. The solution was administered subcutaneously to male Wistar Han rats at a dose level of about 50 mg/kg and dose volume of 0.125 mL/kg and the pharmacokinetic (PK) profile was determined.
as §1, with “500” for “400”, “16.64” for “19.14”, “35.36” for “40.66”, “43.00” for “35.20”, “0.1” for “0.125”
(§2) A solution of about 400 mg/mL of the compound of Formula (Ia) having 17.00 w/w % water, 36.40 w/w % PEG 300, 35.20 w/w % of a sodium salt of a compound of Formula (Ia), 5.00 w/w % ethanol, and 6.40 w/w % poloxamer 188 was prepared. The solution was administered subcutaneously to male beagle dogs at a dose level of about 12 mg/kg and male Wistar Han rats at a dose level of about 50 mg/kg. The pharmacokinetic profiles were determined, and the results for dogs are summarized in Table and Table, while the results for rats are summarized in Table and Table below.
as §2, with “500” for “400”, “14.06” for “17.00”, “30.12” for “36.40”
A solution of about 300 mg/mL of the compound of Formula (Ia) having 23.33 w/w % water, 48.99 w/w % PEG 300, 26.47 w/w % of a sodium salt of a compound of Formula (Ia), and 1.21 w/w % poloxamer 188 was prepared. The solution was administered subcutaneously to male beagle dogs at a dose level of about 6 mg/kg and male Wistar Han rats at a dose level of about 50 mg/kg. The pharmacokinetic profiles were determined, and the results for dogs are summarized in Table and Table, while the results for rats are summarized in Table and Table below.
as §2, with “18.80” for “17.00”, “40.25” for “36.40”, “34.38” for “35.20”, “1.57” for “6.40”
as §2, with “500” for “400”, “16.29” for “17.00”, “34.88” for “36.40”, “41.92” for “35.20”, “1.91” for “6.40”
A solution of about 400 mg/mL of the compound of Formula (Ia) having 20.90 w/w % water, 44.72 w/w % PEG 300, and 34.38 w/w % of a sodium salt of a compound of Formula (Ia) was prepared. […]

[1] = n = 5 rats, solution T, 400 mg/mL

AUC(0-t) (n = 3 rats, solution R, 400 mg/mL, read-out: AUC0-1344h): 402 ± 58 µM·h | AUC(0-t) (n = 3 rats, solution R, 400 mg/mL, read-out: AUC0-1680h): 504 ± 80 µM·h | AUC(0-t) (n = 3 rats, solution R, 400 mg/mL, read-out: AUC0-2352h): 649 ± 95 µM·h | AUC(0-t) (n = 3 rats, solution R, 400 mg/mL, read-out: AUC0-3024h): 752 ± 92 µM·h | AUC(0-t) (n = 3 rats, solution R, 400 mg/mL, read-out: AUC0-3696h): 825 ± 80 µM·h | AUC(0-t) (n = 3 rats, solution R, 400 mg/mL, read-out: AUC0-4704h): 915 ± 44 µM·h | AUC(0-t) (n = 3 rats, solution R, 400 mg/mL, read-out: AUC0-5376h): 958 ± 21 µM·h | AUC(0-t) (n = 3 rats, solution R, 400 mg/mL, read-out: AUC0-6048h): 988 ± 4 µM·h | AUC(0-t) (n = 3 rats, solution R, 400 mg/mL, read-out: AUC0-7392h): 1020 ± 18 µM·h | AUC(0-t) (n = 3 rats, solution R, 400 mg/mL, read-out: AUC0-8064h): 1030 ± 25 µM·h | Cmax (n = 3 rats, solution S, 500 mg/mL): 328 ± 131 nM | AUC(0-t) (n = 3 rats, solution S, 500 mg/mL, read-out: AUC0-24 h): 2.47 ± 0.39 µM·h | AUC(0-t) (n = 3 rats, solution S, 500 mg/mL, read-out: AUC0-168 h): 19.7 ± 3.1 µM·h | AUC(0-t) (n = 3 rats, solution S, 500 mg/mL, read-out: AUC0-336 h): 44.2 ± 7.5 µM·h | AUC(0-t) (n = 3 rats, solution S, 500 mg/mL, read-out: AUC0-672 h): 133 ± 40 µM·h | AUC(0-t) (n = 3 rats, solution S, 500 mg/mL, read-out: AUC0-1008 h): 233 ± 79 µM·h | AUC(0-t) (n = 3 rats, solution S, 500 mg/mL, read-out: AUC0-1344 h): 334 ± 120 µM·h | AUC(0-t) (n = 3 rats, solution S, 500 mg/mL, read-out: AUC0-1680 h): 426 ± 148 µM·h | AUC(0-t) (n = 3 rats, solution S, 500 mg/mL, read-out: AUC0-2352 h): 554 ± 185 µM·h | AUC(0-t) (n = 3 rats, solution S, 500 mg/mL, read-out: AUC0-3024 h): 652 ± 203 µM·h | AUC(0-t) (n = 3 rats, solution S, 500 mg/mL, read-out: AUC0-3696 h): 722 ± 216 µM·h | AUC(0-t) (n = 3 rats, solution S, 500 mg/mL, read-out: AUC0-4704 h): 817 ± 224 µM·h | AUC(0-t) (n = 3 rats, solution S, 500 mg/mL, read-out: AUC0-5376 h): 861 ± 226 µM·h | AUC(0-t) (n = 3 rats, solution S, 500 mg/mL, read-out: AUC0-6048 h): 896 ± 220 µM·h | AUC(0-t) (n = 3 rats, solution S, 500 mg/mL, read-out: AUC0-6720 h): 923 ± 229 µM·h | AUC(0-t) (n = 3 rats, solution S, 500 mg/mL, read-out: AUC0-7392 h): 945 ± 229 µM·h | AUC(0-t) (n = 3 rats, solution S, 500 mg/mL, read-out: AUC0-8064 h): 964 ± 228 µM·h | AUC(0-t) (n = 3 rats, solution V, 300 mg/mL, read-out: AUC0-24 h): 3.66 ± 4.29 µM·h | AUC(0-t) (n = 3 rats, solution V, 300 mg/mL, read-out: AUC0-168 h): 24.5 ± 5.4 µM·h | AUC(0-t) (n = 3 rats, solution V, 300 mg/mL, read-out: AUC0-336 h): 50.1 ± 9.2 µM·h | AUC(0-t) (n = 3 rats, solution V, 300 mg/mL, read-out: AUC0-672 h): 137 ± 27 µM·h | AUC(0-t) (n = 3 rats, solution V, 300 mg/mL, read-out: AUC0-1008 h): 237 ± 52 µM·h | AUC(0-t) (n = 3 rats, solution V, 300 mg/mL, read-out: AUC0-1344 h): 331 ± 85 µM·h | AUC(0-t) (n = 3 rats, solution V, 300 mg/mL, read-out: AUC0-1680 h): 423 ± 96 µM·h | AUC(0-t) (n = 3 rats, solution V, 300 mg/mL, read-out: AUC0-2352 h): 554 ± 113 µM·h | AUC(0-t) (n = 3 rats, solution V, 300 mg/mL, read-out: AUC0-3024 h): 646 ± 121 µM·h | AUC(0-t) (n = 3 rats, solution V, 300 mg/mL, read-out: AUC0-3696 h): 700 ± 121 µM·h | AUC(0-t) (n = 3 rats, solution V, 300 mg/mL, read-out: AUC0-4704 h): 720 ± 120 µM·h | Cmax [1]: 450 ± 155 nM | AUC(0-t) (n = 5 rats, solution T, 400 mg/mL, read-out: AUC0-24 h): 5.49 ± 1.6 µM·h | AUC(0-t) (n = 5 rats, solution T, 400 mg/mL, read-out: AUC0-168 h): 40.6 ± 15.3 µM·h | AUC(0-t) (n = 5 rats, solution T, 400 mg/mL, read-out: AUC0-336 h): 76.4 ± 25.3 µM·h | AUC(0-t) (n = 5 rats, solution T, 400 mg/mL, read-out: AUC0-672 h): 173 ± 75.6 µM·h | AUC(0-t) (n = 5 rats, solution T, 400 mg/mL, read-out: AUC0-1008 h): 313 ± 157 µM·h | AUC(0-t) (n = 5 rats, solution T, 400 mg/mL, read-out: AUC0-1344 h): 394 ± 185 µM·h | AUC(0-t) (n = 5 rats, solution T, 400 mg/mL, read-out: AUC0-1680 h): 485 ± 195 µM·h | AUC(0-t) (n = 5 rats, solution T, 400 mg/mL, read-out: AUC0-2352 h): 581 ± 146 µM·h | AUC(0-t) (n = 5 rats, solution T, 400 mg/mL, read-out: AUC0-3024 h): 655 ± 112 µM·h | AUC(0-t) (n = 5 rats, solution T, 400 mg/mL, read-out: AUC0-3696 h): 679 ± 103 µM·h | AUC(0-t) (n = 5 rats, solution T, 400 mg/mL, read-out: AUC0-4704 h): 718 ± 88 µM·h | AUC(0-t) (n = 5 rats, solution T, 400 mg/mL, read-out: AUC0-5376 h): 745 ± 76 µM·h | AUC(0-t) (n = 5 rats, solution T, 400 mg/mL, read-out: AUC0-6048 h): 766 ± 66 µM·h | AUC(0-t) (n = 5 rats, solution T, 400 mg/mL, read-out: AUC0-6720 h): 783 ± 59 µM·h | Cmax (n = 5 rats, solution U, 500 mg/mL): 362 ± 147 nM | AUC(0-t) (n = 5 rats, solution U, 500 mg/mL, read-out: AUC0-24 h): 3.74 ± 0.78 µM·h | AUC(0-t) (n = 5 rats, solution U, 500 mg/mL, read-out: AUC0-168 h): 29.8 ± 7.5 µM·h | AUC(0-t) (n = 5 rats, solution U, 500 mg/mL, read-out: AUC0-336 h): 63.2 ± 20.7 µM·h | AUC(0-t) (n = 5 rats, solution U, 500 mg/mL, read-out: AUC0-672 h): 159 ± 77 µM·h | AUC(0-t) (n = 5 rats, solution U, 500 mg/mL, read-out: AUC0-1008 h): 338 ± 141 µM·h | AUC(0-t) (n = 5 rats, solution U, 500 mg/mL, read-out: AUC0-1344 h): 409 ± 159 µM·h | AUC(0-t) (n = 5 rats, solution U, 500 mg/mL, read-out: AUC0-1680 h): 529 ± 194 µM·h | AUC(0-t) (n = 5 rats, solution U, 500 mg/mL, read-out: AUC0-2352 h): 610 ± 215 µM·h | AUC(0-t) (n = 5 rats, solution U, 500 mg/mL, read-out: AUC0-3024 h): 669 ± 233 µM·h | AUC(0-t) (n = 5 rats, solution U, 500 mg/mL, read-out: AUC0-3696 h): 692 ± 233 µM·h | AUC(0-t) (n = 5 rats, solution U, 500 mg/mL, read-out: AUC0-4704 h): 728 ± 249 µM·h | AUC(0-t) (n = 5 rats, solution U, 500 mg/mL, read-out: AUC0-5376 h): 756 ± 256 µM·h | AUC(0-t) (n = 5 rats, solution U, 500 mg/mL, read-out: AUC0-6048 h): 781 ± 261 µM·h | AUC(0-t) (n = 5 rats, solution U, 500 mg/mL, read-out: AUC0-6720 h): 802 ± 266 µM·h | AUC (n = 3 rats, solution R, 400 mg/mL, read-out: AUC0-6720n): 1007 ± 8 µM·h | Tmax [1]: 18.8 ± 17.5 days
SMILES: CC(C)(C#Cc1ccc(-c2ccc(Cl)c3c(NS(C)(=O)=O)nn(CC(F)(F)F)c23)c([C@H](Cc2cc(F)cc(F)c2)NC(=O)Cn2nc(C(F)(F)F)c3c2C(F)(F)[C@@H]2C[C@H]32)n1)S(C)(=O)=O [compound of Formula (Ia)]
